Values of other authors, collected in patent US7393692B2, “SERS method for rapid pharmacokinetic analysis of drugs in saliva” (Real-Time Analyzers, Inc., priority 2004, dated 2008).

Key:
[1] = patient dependent
[2] = target: T1, dihydropyrimidine dehydrogenase (DPD) (Homo sapiens, UniProt Q12882); conditions: patient with the normal amount of DPD
T1 construct: endogenous in cells; host or cells: human individuals / hypothetical cancer patients (in vivo metabolism)
T1 sequence (Q12882 4-1025): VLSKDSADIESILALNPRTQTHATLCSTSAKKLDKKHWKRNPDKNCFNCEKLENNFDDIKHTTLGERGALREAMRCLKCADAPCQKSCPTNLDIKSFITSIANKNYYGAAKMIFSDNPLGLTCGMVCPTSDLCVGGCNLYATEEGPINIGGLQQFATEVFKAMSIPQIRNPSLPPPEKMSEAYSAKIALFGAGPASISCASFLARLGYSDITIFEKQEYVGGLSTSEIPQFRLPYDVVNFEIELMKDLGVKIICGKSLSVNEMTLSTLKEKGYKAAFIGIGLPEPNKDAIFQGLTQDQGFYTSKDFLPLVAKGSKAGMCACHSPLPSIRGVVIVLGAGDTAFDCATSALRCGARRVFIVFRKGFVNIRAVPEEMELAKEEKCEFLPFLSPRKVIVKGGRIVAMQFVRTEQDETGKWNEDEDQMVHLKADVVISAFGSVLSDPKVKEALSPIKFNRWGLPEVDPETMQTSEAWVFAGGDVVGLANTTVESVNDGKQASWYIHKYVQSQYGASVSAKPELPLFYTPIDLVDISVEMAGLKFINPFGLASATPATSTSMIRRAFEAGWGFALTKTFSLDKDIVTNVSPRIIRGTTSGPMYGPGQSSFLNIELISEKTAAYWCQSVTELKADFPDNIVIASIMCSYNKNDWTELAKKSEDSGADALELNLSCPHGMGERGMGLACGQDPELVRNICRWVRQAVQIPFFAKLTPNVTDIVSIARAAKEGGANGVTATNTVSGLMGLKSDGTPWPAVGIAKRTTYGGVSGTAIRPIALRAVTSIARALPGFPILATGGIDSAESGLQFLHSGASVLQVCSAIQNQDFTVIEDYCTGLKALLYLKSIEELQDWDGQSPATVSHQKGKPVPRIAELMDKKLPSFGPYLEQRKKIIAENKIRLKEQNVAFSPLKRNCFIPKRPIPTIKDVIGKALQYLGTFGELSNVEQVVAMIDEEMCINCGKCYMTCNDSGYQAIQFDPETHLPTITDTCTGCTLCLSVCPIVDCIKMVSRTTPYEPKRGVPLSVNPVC

5-FU concentration in saliva, maximum ([1]; closely matches plasma): 15 to 28 µg/mL
5-FU concentration in saliva, three hour minimum ([1]; three hour minimum): 0.1 µg/mL
5-FU metabolized to 5-FUH2 on average [2]: about 50%
Structure (SMILES): O=c1[nH]cc(F)c(=O)[nH]1 [5-FU, 5-fluorouracil]
